Experimental data taken from patent publication US10618916B2, “Heterocyclic compounds as immunomodulators” (Incyte Corporation, priority 2018, dated 2020).
Read-outs that look alike come from different tables or passages of the source.

Legend:
[1] = tested on: PD-L1 aAPC/CHO-K1 cells and Jurkat-PD-1-NFAT effector cells; test: Nuclear factor of activated T-cells (NFAT) assay; type: cell-based
Description: Example C. Nuclear Factor of Activated T-Cells (NFAT) Assay
PD-L1 aAPC/CHO-K1 cells (Promega) were maintained in F-12 medium with addition of 10% FBS, 200 μg/ml Hygromycin B, 250 μg/ml Geneticin (G418). Jurkat-PD-1-NFAT effector cells (Promega) were cultured in RPMI 1640 medium supplemented with 10% FBS, 100 μg/ml Hygromycin B, 500 μg/ml G418. The culture media of PD-L1 aAPC/CHO-K1 cells were first replaced with assay medium (RPMI1640 medium with 1% FBS). The PD-L1 aAPC/CHO-K1 cells were then added in a white 384-well white clear bottom assay plate (CELLCOAT® Tissue Culture Plates, Greiner Bio-One) at 8000 per well in 10 μL assay medium. Test compounds were prepared by serial dilution in DMSO and 0.8 μL test compounds in DMSO were first transferred to the 384 REMP plate well (Thermofisher) by PlateMate Plus (Thermofisher) followed with addition of 50 μL plating medium. 5 μL compounds in the assay medium were transferred to the cells with 0.4% DMSO in the final assay at 2 μM. After removing the culture media, 10,000 Jurkat-PD-1-NFAT effector cells in 5 μL assay medium was dispensed into each well. The assay plate was incubated at 37° C., 5% CO2 for 24 hours. After the assay plate was equilibrated to room temp for 15 minutes, 20 µL/well of Bio-Glo™ reagent (Promega) were added. After 8 minutes incubation at room temperature, luminescence was read at with Pherastar microplate reader (BMG Labtech). The fold of induction (FOI) was calculated based on the ratio of luminescence normalized to the DMSO wells within each assay plate. The maximum percentage of induction was reported based on the ratio between the highest FOI of each compound and the maximum FOI of control compound within each assay plate. Wells with DMSO were served as the negative controls and wells containing control compound with the highest FOI were used as positive controls. EC50 determination was performed by fitting the curve of percent control activity versus the log of the compound concentration using the GraphPad Prism 6.0 software.

[2] = molecular target: PD-1/PD-L1 protein/protein interaction (recombinant human PD-L1 and human PD-1) (Homo sapiens (Human), UniProt Q9NZQ7); test: Homogeneous Time-Resolved Fluorescence (HTRF) PD-1/PD-L1 binding assay
Description: Example A. Homogeneous Time-Resolved Fluorescence (HTRF) PD-1/PD-L1 Binding Assay
The assays were conducted in a standard black 384-well polystyrene plate with a final volume of 20 μL. Inhibitors were first serially diluted in DMSO and then added to the plate wells before the addition of other reaction components. The final concentration of DMSO in the assay was 1%. The assays were carried out at 25° C. in the PBS buffer (pH 7.4) with 0.05% Tween-20 and 0.1% BSA. Recombinant human PD-L1 protein (19-238) with a His-tag at the C-terminus was purchased from AcroBiosystems (PD1-H5229). Recombinant human PD-1 protein (25-167) with Fc tag at the C-terminus was also purchased from AcroBiosystems (PD1-H5257). PD-L1 and PD-1 proteins were diluted in the assay buffer and 10 μL was added to the plate well. Plates were centrifuged and proteins were preincubated with inhibitors for 40 minutes. The incubation was followed by the addition of 10 μL of HTRF detection buffer supplemented with Europium cryptate-labeled anti-human IgG (PerkinElmer-AD0212) specific for Fc and anti-His antibody conjugated to SureLight®-Allophycocyanin (APC, PerkinElmer-AD0059H). After centrifugation, the plate was incubated at 25° C. for 60 min. before reading on a PHERAstar FS plate reader (665 nm/620 nm ratio). Final concentrations in the assay were—3 nM PD1, 10 nM PD-L1, 1 nM europium anti-human IgG and 20 nM anti-His-Allophycocyanin. IC50 determination was performed by fitting the curve of percent control activity versus the log of the inhibitor concentration using the GraphPad Prism 5.0 software.

[3] = tested on: U2OS/PD-L1 cells and Jurkat-PD-1-SHP cells; test: Src homology region 2 domain-containing phosphatase (SHP) assay; type: cell-based
Description: Example B. Src Homology Region 2 Domain-Containing Phosphatase (SHP) Assay
U2OS/PD-L1 cells (DiscoveRx Corporation) were maintained in McCoy's 5A medium with addition of 10% FBS, 0.25 μg/ml Puromycin. After removing the culture media, the cell medium was replaced with assay medium (RPMI1640 medium with 1% FBS). The U2OS/PD-L1 cells were then added in 384-well black clear bottom assay plate (CELLCOAT® Tissue Culture Plates, Greiner Bio-One) at 5000 cells per well in 20 μL assay medium. Test compounds were prepared by serial dilution in DMSO and 125 nL compound were first transferred to the 384 REMP plate well (Thermofisher) by ECHO liquid handler (Labcyte) followed with addition of 27.5 μL assay medium. 5 μL/well compounds in the assay medium were transferred to the cell plate with 0.05% DMSO in the final assay at […]. Jurkat-PD-1-SHP cells (DiscoveRx Corporation) were cultured in RPMI1640 medium supplemented with 10% FBS, 250 μg/ml Hygromycin B, 500 μg/ml G418. After the replacement of culture media with assay medium, 5,000 Jurkat-PD-1-SHP cells in 20 μL were dispensed into each well. The assay plate was incubated at 37° C., 5% CO2 for 2 hours before 2.5 μL PathHunter reagent 1 (DiscoveRx Corporation) were added to each well. The assay plate was shaken for 1 min at 350 rpm in the dark followed with addition of 10 μL PathHunter reagent 2 (DiscoveRx Corporation). Chemiluminescent signal was recorded with TopCount reader (Perkin Elmer) after incubation at room temperature for 1 hour. Wells with DMSO were served as the positive controls and wells containing no cells were used as negative controls. IC50 determination was performed by fitting the curve of percentage of control activity versus the log of the compound concentration using the GraphPad Prism 6.0 software.

Sequence of PD-1/PD-L1 protein/protein interaction (recombinant human PD-L1 and human PD-1) (Q9NZQ7 19-238): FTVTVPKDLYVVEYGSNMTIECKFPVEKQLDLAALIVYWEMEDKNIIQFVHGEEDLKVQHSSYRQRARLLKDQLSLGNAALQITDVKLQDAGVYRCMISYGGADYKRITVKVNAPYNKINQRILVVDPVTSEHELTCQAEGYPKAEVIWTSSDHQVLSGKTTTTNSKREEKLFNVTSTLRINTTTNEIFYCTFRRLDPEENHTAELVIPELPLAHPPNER

| SMILES | IC50 [2] [nM] | IC50 [3] [nM] | IC50 ([3]; Homo sapiens, U2OS) [nM] | EC50 [1] [nM] | EC50 ([1]; Cricetulus griseus, CHO-K1) [nM] |
| --- | --- | --- | --- | --- | --- |
| Cc1c(NC(=O)c2nc3c(n2C)CCN(C2CCC(O)CC2)C3)cccc1-c1cccc(NC(=O)c2nc3c(n2C)CCN(CCC24CCC(C(=O)O)(CC2)C4)C3)c1Cl (single isomer, unassigned) [61 (compound 2), 4-(2-(2-((2-chloro-3′-(5-(4-hydroxycyclohexyl)-1-methyl-4,5,6,7-tetrahydro-1H-imidazo[4,5-c]pyridine-2-carboxamido)-2′-methyl-[1,1′-biphenyl]-3-yl)carbamoyl)-1-methyl-1,4,6,7-tetrahydro-5H-imidazo[4,5-c]pyridin-5-yl)ethyl)bicyclo[2.2.1]heptane-1-carboxylic acid] | ≤ 5 | ≤ 10 |  | 10 to 100 |  |
| Cn1c(C(=O)Nc2cccc(-c3cccc(NC(=O)c4nc5c(n4C)CCN(Cc4cc(C(=O)O)n[nH]4)C5)c3Cl)c2Cl)nc2c1CCN(CCC13CCC(C(=O)O)(CC1)C3)C2 [Example 26, 5-((2-((3′-(5-(2-(4-carboxybicyclo[2.2.1]heptan-1-yl)ethyl)-1-methyl-4,5,6,7-tetrahydro-1H-imidazo[4,5-c]pyridine-2-carboxamido)-2,2′-dichloro-[1,1′-biphenyl]-3-yl)carbamoyl)-1-methyl-1,4,6,7-tetrahydro-5H-imidazo[4,5-c]pyridin-5-yl)methyl)-1H-pyrazole-3-carboxylic acid] | ≤ 5 |  | ≤ 10 |  | 10 to 100 |
| Cn1c(C(=O)Nc2cccc(-c3cccc(NC(=O)c4nc5c(n4C)CCN(C4CCOCC4)C5)c3C#N)c2Cl)nc2c1CCN(CCC13CCC(C(=O)O)(CC1)C3)C2 [Example 47, 4-(2-(2-((2-chloro-2′-cyano-3′-(1-methyl-5-(tetrahydro-2H-pyran-4-yl)-4,5,6,7-tetrahydro-1H-imidazo[4,5-c]pyridine-2-carboxamido)-[1,1′-biphenyl]-3-yl)carbamoyl)-1-methyl-1,4,6,7-tetrahydro-5H-imidazo[4,5-c]pyridin-5-yl)ethyl)bicyclo[2.2.1]heptane-1-carboxylic acid] | ≤ 5 |  |  |  | 10 to 100 |
| C[C@@H](O)CN1CCc2c(nc(C(=O)Nc3cccc(-c4cccc(NC(=O)c5nc6c(n5C)CCN(CCC57CCC(C(=O)O)(CC5)C7)C6)c4Cl)c3C#N)n2C)C1 [Example 49, (R)-4-(2-(2-((2-chloro-2′-cyano-3′-(5-(2-hydroxypropyl)-1-methyl-4,5,6,7-tetrahydro-1H-imidazo[4,5-c]pyridine-2-carboxamido)-[1,1′-biphenyl]-3-yl)carbamoyl)-1-methyl-1,4,6,7-tetrahydro-5H-imidazo[4,5-c]pyridin-5-yl)ethyl)bicyclo[2.2.1]heptane-1-carboxylic Acid] | ≤ 5 |  |  |  | 10 to 100 |
| Cn1c(C(=O)Nc2cccc(-c3cccc(NC(=O)c4nc5c(n4C)CCN(CCO)C5)c3C#N)c2Cl)nc2c1CCN(CCC13CCC(C(=O)O)(CC1)C3)C2 [Example 50, 4-(2-(2-((2-chloro-2′-cyano-3′-(5-(2-hydroxyethyl)-1-methyl-4,5,6,7-tetrahydro-1H-imidazo[4,5-c]pyridine-2-carboxamido)-[1,1′-biphenyl]-3-yl)carbamoyl)-1-methyl-1,4,6,7-tetrahydro-5H-imidazo[4,5-c]pyridin-5-yl)ethyl)bicyclo[2.2.1]heptane-1-carboxylic acid] | ≤ 5 |  |  |  | 10 to 100 |

The next lines start with results.

| IC50 [2] [nM] | IC50 [3] [nM] | IC50 ([3]; Homo sapiens, U2OS) [nM] | SMILES | EC50 [1] [nM] | EC50 ([1]; Cricetulus griseus, CHO-K1) [nM] |
| --- | --- | --- | --- | --- | --- |
| ≤ 5 |  | ≤ 10 | CN1CCc2c(nc(C(=O)Nc3cccc(-c4cccc(NC(=O)c5nc6c(n5C)CCN(CCC57CCC(C(=O)O)(CC5)C7)C6)c4Cl)c3Cl)n2C)C1 [Example 3, 4-(2-(2-((2,2′-dichloro-3′-(1,5-dimethyl-4,5,6,7-tetrahydro-1H-imidazo[4,5-c]pyridine-2-carboxamido)-[1,1′-biphenyl]-3-yl)carbamoyl)-1-methyl-1,4,6,7-tetrahydro-5H-imidazo[4,5-c]pyridin-5-yl)ethyl)bicyclo[2.2.1]heptane-1-carboxylic acid] |  | 10 to 100 |
| ≤ 5 |  | ≤ 10 | CCN1CCc2c(nc(C(=O)Nc3cccc(-c4cccc(NC(=O)c5nc6c(n5C)CCN(CCC57CCC(C(=O)O)(CC5)C7)C6)c4Cl)c3Cl)n2C)C1 [Example 4, 4-(2-(2-((2,2′-dichloro-3′-(5-ethyl-1-methyl-4,5,6,7-tetrahydro-1H-imidazo[4,5-c]pyridine-2-carboxamido)-[1,1′-biphenyl]-3-yl)carbamoyl)-1-methyl-1,4,6,7-tetrahydro-5H-imidazo[4,5-c]pyridin-5-yl)ethyl)bicyclo[2.2.1]heptane-1-carboxylic acid] |  | 10 to 100 |
| ≤ 5 |  | ≤ 10 | CC(C)N1CCc2c(nc(C(=O)Nc3cccc(-c4cccc(NC(=O)c5nc6c(n5C)CCN(CCC57CCC(C(=O)O)(CC5)C7)C6)c4Cl)c3Cl)n2C)C1 [Example 5, 4-(2-(2-((2,2′-dichloro-3′-(5-isopropyl-1-methyl-4,5,6,7-tetrahydro-1H-imidazo[4,5-c]pyridine-2-carboxamido)-[1,1′-biphenyl]-3-yl)carbamoyl)-1-methyl-1,4,6,7-tetrahydro-5H-imidazo[4,5-c]pyridin-5-yl)ethyl)bicyclo[2.2.1]heptane-1-carboxylic acid] |  | ≤ 10 |
| ≤ 5 |  | ≤ 10 | Cn1c(C(=O)Nc2cccc(-c3cccc(NC(=O)c4nc5c(n4C)CCN(C4CCC4)C5)c3Cl)c2Cl)nc2c1CCN(CCC13CCC(C(=O)O)(CC1)C3)C2 [Example 6, 4-(2-(2-((2,2′-dichloro-3′-(5-cyclobutyl-1-methyl-4,5,6,7-tetrahydro-1H-imidazo[4,5-c]pyridine-2-carboxamido)-[1,1′-biphenyl]-3-yl)carbamoyl)-1-methyl-1,4,6,7-tetrahydro-5H-imidazo[4,5-c]pyridin-5-yl)ethyl)bicyclo[2.2.1]heptane-1-carboxylic acid] |  | 10 to 100 |
| ≤ 5 |  | ≤ 10 | Cc1c(NC(=O)c2nc3c(n2C)CCN(C)C3)cccc1-c1cccc(NC(=O)c2nc3c(n2C)CCN(CCC24CCC(C(=O)O)(CC2)C4)C3)c1Cl [Example 29, 4-(2-(2-((2-chloro-3′-(1,5-dimethyl-4,5,6,7-tetrahydro-1H-imidazo[4,5-c]pyridine-2-carboxamido)-2′-methyl-[1,1′-biphenyl]-3-yl)carbamoyl)-1-methyl-1,4,6,7-tetrahydro-5H-imidazo[4,5-c]pyridin-5-yl)ethyl)bicyclo[2.2.1]heptane-1-carboxylic acid] |  | 10 to 100 |
